These results are taken from paper PMC5501782 (Scientific Reports, 2017).

“Also recorded” adds a separate entry of the source. Non-standard residues stand in square brackets, D forms with d. Residues, ends and D or L forms follow the SMILES beside them.

Series [1] has as its system Influenza virus (H1N1) A/Puerto Rico/8/34. The note with it: Influenza virus A/Puerto Rico/8/34, 48 h.
Series [2] has as its system PR8-GFP virus. It counts as cell-based, influenza A virus.
Series [3] has as its system PR8-GFP virus. Set-up: species or system influenza A virus.
The subject of series [4] is MDCK cells.
Series [5] concerns Herpes simplex virus. The following applies: 48 h.
The subject of series [6] is influenza virus (A/Puerto Rico/8/34, PR8) expressing green fluorescent protein (PR8-GFP). It counts as cell-based.
Series [7] concerns Newcastle disease virus. The following applies: 48 h.
Series [8] has as its system Respiratory Syncytial Virus. The note with it: 48 h.
For series [9], the system named is A/EM/Korea/W149/06 (W149, HPAI, H5N1). The following applies: mouse, in vivo.
The test system of series [10] is Parainfluenza virus. The note with it: 48 h.
For series [11], the system named is VSV (293T cells). In kind it is cell-based, vesicular stomatitis virus.
For series [12], the system named is Coxsackievirus (HeLa cells). It counts as cell-based.
Series [13] has as its system Coxsakievirus. In kind it is cell-based.
Series [14] relates to Influenza virus (H5N2) A/bird/Korea/W81/2005. The note with it: Influenza virus A/bird/Korea/W81/2005, 48 h.
Series [15] concerns Enterovirus71. In kind it is cell-based.
Series [16] relates to Porcine epidemic diarrhea virus. The note with it: 48 h.
The test system of series [17] is RSV (Hep2 cells). It counts as cell-based, respiratory syncytial virus.
Series [18] relates to Influenza virus (H9N2) A/Chicken/Korea/116/2004. The following applies: 48 h.
The test system of series [19] is Vesicular stomatitis virus. The note with it: 48 h.
Series [20] concerns Influenza virus (H7N3) A/Aquatic bird/Korea/W44/2005. The note with it: 48 h.
In series [21] the test system is autophagy. The note with it: cited from earlier work.

One may read the IC50 as the concentration needed to halve the response being measured. A low value points to greater potency in that assay. For `CC(C)C[C@@H](NC(=O)[C@@H](CC(C)C)NC(=O)[C@@H](CC(N)=O)NC(=O)[C@H](NC(=O)[C@@H](Cc1ccccc1)NC(=O)CNC(=O)[C@@H](Cc1ccc(O)cc1)NC(=O)CNC(=O)[C@@H](CCCNC(=N)N)NC(=O)[C@@H](CCCCN)NC(=O)[C@@H](CCCCN)NC(=O)[C@@H](CCCNC(=N)N)NC(=O)[C@@H](CCCNC(=N)N)NC(=O)[C@@H](CCC(N)=O)NC(=O)[C@@H](CCCNC(=N)N)NC(=O)[C@@H](CCCNC(=N)N)NC(=O)[C@H](N)CCCNC(=N)N)C(C)C)C(=O)N[C@H](Cc1ccccc1)C(=O)N[C@H](CC(C)C)C(=O)N[C@@H](C(=O)N[C@@H](C(=O)N[C@H](CCC(=O)O)C(=O)O)C(C)C)C(C)C` [TAT-Kα2] (H-[dR][dR][dR][dQ][dR][dR][dK][dK][dR]G[dY]G[dF][dV][dN][dL][dL][dF][dL][dV][dV][dE]-OH), the concentration for half-maximal inhibition (IC50) is 500 nM in series [1]; 5700 nM in series [5]; 800 nM in series [7]; 3400 nM in series [8]; 2400 nM in series [10]; “No” in series [13]. Also, the half-inhibitory concentration (IC50) in series [14] is 800 nM; in series [15] it was “No”; in [16] it was 3500 nM; in [18], 700 nM; in series [19] it was 2900 nM; in [20], 1200 nM. For the same compound, the virus transmission result in series [2] was “suppressed”. Besides, the “infectivity of virus in positive fractions in vitro” value in series [3] was “did not”. The “cytotoxicity or CPE” value in series [4] is on record as “no cytotoxicity or CPE”. In addition, the “antiviral action at attachment step” value in [6] was “inhibition of virus infection”. In addition, in series [6], the “antiviral action at post-attachment step” value is recorded as “unable to inhibit virus infection”. Moreover, the “antiviral action at pre-attachment step” value in series [6] is “antiviral activity”. Moreover, the “infection of MDCK cells by peptide-treated PR8-GFP” value in series [6] is given as “strongly diminished”. Further, the “infectivity of PR8-GFP virus” value in series [6] is on record as “dramatically suppressed; also recorded: no viral infection was detected”. Besides, in [6], the “reduction in the virus titer” value is reported as “approximately 40%”. Further, the “difference in body weight percentage among groups” value in series [9] is “more than 20%”. Moreover, the lung histopathology entry in series [9] is on record as “intact lung tissues”. Also, the lung virus titer result in [9] was “no virus was detected”. In addition, in series [9], the survival rate amounted to 100%. For the same compound, the inhibition of infection result in [11] and in series [17] was “inhibited” throughout. Also, the virucidal effect result in series [12] and in [15] was “did not show any virucidal effects” in each case.
Regarding EVVLFLLNVF [Kα2], in [21], the autophagy induction entry is listed as “robust autophagy inducer”.
